Measured values as given in patent publication US20260083851A1 (AVILAR THERAPEUTICS, INC., priority 2022, published 2026).
Like-named read-outs stand apart in the source and are kept apart here. Starred links: 1 amine or outer side, 2 acyl side, 3 side chain; linkers in the order of their positions; H or OH if unused. Positions of bridges follow the written chain, without caps; N, C: chain ends. Non-standard residues stand in square brackets, D forms with d. Residues, ends and D or L forms follow the SMILES beside them. ξ: configuration not given here. *: point of attachment. X1 = O=C(CCOCC(COCCC(=O)NCCOCCOCCOCCOCC1OCC(Nc2cncc(C(F)(F)F)n2)C(O)C1O)NCC(=O)*)NCCOCCOCCOCCOCC1OCC(Nc2cncc(C(F)(F)F)n2)C(O)C1O; ξPro(4ξ-NH2) = O=C(C1CC(N[*:3])CN1[*:1])[*:2]

Tests used:
ASGPR = biological target: T1, ASGPR (Homo sapiens, UniProt P07306); test: ASGPR SPR binding
T1 construct: biotin (biotinylated)
T1 sequence (P07306 1-291): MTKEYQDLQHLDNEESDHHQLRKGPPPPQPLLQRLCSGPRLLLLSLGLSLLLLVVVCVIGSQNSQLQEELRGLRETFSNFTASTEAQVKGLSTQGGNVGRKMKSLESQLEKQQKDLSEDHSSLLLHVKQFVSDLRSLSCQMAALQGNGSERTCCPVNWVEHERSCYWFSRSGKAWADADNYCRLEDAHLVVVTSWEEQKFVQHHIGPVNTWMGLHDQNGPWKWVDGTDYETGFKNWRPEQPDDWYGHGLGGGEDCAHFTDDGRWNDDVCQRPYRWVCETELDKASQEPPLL

IgG = IgG SPR binding; conditions: second table, read-out: IgG KD
[1] = biological target: T2, ASGPR receptor on HepG2 cells (ternary complex with AF488-labeled antibody) (Homo sapiens, UniProt P07306); test: Ternary complex formation assay (flow cytometry, cell-associated AF488 fluorescence); format: cell-based
T2 construct: host or cells: HepG2
T2 sequence (P07306 1-291): T1 sequence (P07306 1-291)
T2 sequence (P07307 1-311 partner): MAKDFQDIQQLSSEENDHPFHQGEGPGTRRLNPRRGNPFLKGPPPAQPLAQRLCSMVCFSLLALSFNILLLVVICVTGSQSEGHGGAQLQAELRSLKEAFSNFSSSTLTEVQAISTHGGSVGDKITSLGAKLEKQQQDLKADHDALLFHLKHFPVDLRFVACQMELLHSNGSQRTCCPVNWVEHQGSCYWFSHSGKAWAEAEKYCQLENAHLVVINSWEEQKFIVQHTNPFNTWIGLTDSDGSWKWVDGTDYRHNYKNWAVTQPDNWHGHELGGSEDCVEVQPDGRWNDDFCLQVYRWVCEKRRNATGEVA
Experimental: Human IgG (Sigma-Aldrich, 14506) was covalently labeled with Alexa Fluor 488 using the Alexa Fluor™ 488 Protein Labeling Kit (Thermo Fisher, A10235) following the manufacturer's instructions. HepG2 cells (ATCC, HB-8065) were cultured to about 70% confluence and harvested by trypsinization. Single cell suspensions of HepG2 cells were plated in 96 well plates at 1×10^5 cells/well in cell culture media (DMEM supplemented with 10% FBS) and placed at 4° C. For studies using human IgG, cells were incubated with 100 nM AF488-labeled anti-human IgG and serial dilutions of IgG-based degrader for 1 hour at 4° C. For studies using DNP, cells were incubated with 100 nM AF488-labeled polyclonal rabbit anti-dinitrophenyl (DNP) antibodies (ThermoFisher) and serial dilutions of DNP-based degrader for 1 hour at 4° C. After washing once with ice-cold PBS containing 0.1% BSA and 0.1% sodium azide, cells were resuspended in 150 uL PBS+0.1% BSA and cell-associated AF488 fluorescence was measured by flow cytometry using the iQue® Screener PLUS Flow Cytometer (IntelliCyt). […]

[2] = read-out: ASGPR KD, second table
[3] = read-out: TCF EC50, 100 nM AF488-labeled antibody, 1 hour at 4° C., the 25th table, class symbols
[4] = second table, read-out: ASGPR KD
[5] = 100 nM AF488-labeled antibody, 1 hour at 4° C., the 25th table, class symbols, read-out: TCF EC50

Compound	Kd (ASGPR; [2]) [nM]	Kd (IgG) [nM]	EC50 [1, 3] [nM]	Kd (ASGPR; [4]) [nM]	EC50 [1, 5] [nM]	EC50 ([1]; read-out: TCF EC50, 100 nM AF488-labeled antibody, 1 hour at 4° C., the 25th table, numeric bounds, nM from footnote) [nM]
CC(C)CC1NC(=O)C(Cc2cnc[nH]2)NC(=O)C(Cc2c[nH]c3ccccc23)NC(=O)C(C)NC(=O)C2CSSCC(NC(=O)C(Cc3c[nH]c4ccccc34)NC(=O)C(C(C)C)NC(=O)C(CC(C)C)NC(=O)C(CCC(=O)O)NC(=O)CNC1=O)C(=O)NC(C(C)O)C(=O)N1CCCC1C(=O)N1CC(NC(=O)CNC(COCCC(=O)NCC3OCC(Nc4cncc(C(F)(F)F)n4)C(O)C3O)COCCC(=O)NCC3OCC(Nc4cncc(C(F)(F)F)n4)C(O)C3O)CC1C(=O)NC(CC(=O)O)C(=O)N2 (stereo not drawn) [compound 41]	< 100	< 100	< 100			
CC(C)CC1NC(=O)C(Cc2cnc[nH]2)NC(=O)C(Cc2c[nH]c3ccccc23)NC(=O)C(C)NC(=O)C2CSSCC(NC(=O)C(Cc3c[nH]c4ccccc34)NC(=O)C(C(C)C)NC(=O)C(CC(C)C)NC(=O)C(CCC(=O)O)NC(=O)CNC1=O)C(=O)NC(C(C)O)C(=O)N1CCCC1C(=O)N1CC(NC(=O)c3ccc(N4CCC(CN5CCN(CC6OCC(Nc7cncc(C(F)(F)F)n7)C(O)C6O)CC5)CC4)nn3)CC1C(=O)NC(CC(=O)O)C(=O)N2 (stereo not drawn) [compound 42]		< 100	< 100	< 100		
CC(C)CC1NC(=O)C(Cc2cnc[nH]2)NC(=O)C(Cc2c[nH]c3ccccc23)NC(=O)C(C)NC(=O)C2CSSCC(NC(=O)C(Cc3c[nH]c4ccccc34)NC(=O)C(C(C)C)NC(=O)C(CC(C)C)NC(=O)C(CCC(=O)O)NC(=O)CNC1=O)C(=O)NC(C(C)O)C(=O)N1CCCC1C(=O)N1CC(NC(=O)CCN3CCN(CC(=O)NCC4OCC(Nc5cncc(C(F)(F)F)n5)C(O)C4O)CC3)CC1C(=O)NC(CC(=O)O)C(=O)N2 (stereo not drawn) [compound 39]		< 100	< 100	< 100		
CC(C)CC1NC(=O)C(Cc2cnc[nH]2)NC(=O)C(Cc2c[nH]c3ccccc23)NC(=O)C(C)NC(=O)C2CSSCC(NC(=O)C(Cc3c[nH]c4ccccc34)NC(=O)C(C(C)C)NC(=O)C(CC(C)C)NC(=O)C(CCC(=O)O)NC(=O)CNC1=O)C(=O)NC(C(C)O)C(=O)N1CCCC1C(=O)N1CC(NC(=O)COc3ccc(CC(=O)NCC4OCC(Nc5cncc(C(F)(F)F)n5)C(O)C4O)cc3)CC1C(=O)NC(CC(=O)O)C(=O)N2 (stereo not drawn) [compound 37]		< 100	< 100	< 100		
CC(C)CC1NC(=O)C(Cc2cnc[nH]2)NC(=O)C(Cc2c[nH]c3ccccc23)NC(=O)C(C)NC(=O)C2CSSCC(NC(=O)C(Cc3c[nH]c4ccccc34)NC(=O)C(C(C)C)NC(=O)C(CC(C)C)NC(=O)C(CCC(=O)O)NC(=O)CNC1=O)C(=O)NC(C(C)O)C(=O)N1CCCC1C(=O)N1CC(NC(=O)CNC(COCCC(=O)NCCOCCOCCOCCOCC3OCC(Nc4cncc(C(F)(F)F)n4)C(O)C3O)COCCC(=O)NCCOCCOCCOCCOCC3OCC(Nc4cncc(C(F)(F)F)n4)C(O)C3O)CC1C(=O)NC(CC(=O)O)C(=O)N2 (stereo not drawn) [compound 46]	< 100	< 100	< 100			
CC(C)CC1NC(=O)C(C)NC(=O)CNC(=O)C(CC(C)C)NC(=O)C(Cc2cnc[nH]2)NC(=O)C(Cc2c[nH]c3ccccc23)NC(=O)C(C)NC(=O)C2CSSCC(NC(=O)C(Cc3c[nH]c4ccccc34)NC(=O)C(C(C)C)NC1=O)C(=O)NC(C(C)O)C(=O)N1CCCC1C(=O)N1CC(NC(=O)CNC(COCCC(=O)NCCOCCOCCOCCOCC3OCC(Nc4cncc(C(F)(F)F)n4)C(O)C3O)COCCC(=O)NCCOCCOCCOCCOCC3OCC(Nc4cncc(C(F)(F)F)n4)C(O)C3O)CC1C(=O)NC(C)C(=O)N2 (stereo not drawn) [compound 71] (cyclo(GALVWCTP[ξPro(4ξ-NH2)](X1)ACAWHL); disulfide 6-11; configuration not given here)	< 100	< 100	< 100			
CC(C)CC1NC(=O)C(Cc2cnc[nH]2)NC(=O)C(Cc2c[nH]c3ccccc23)NC(=O)C(C)NC(=O)C2CSSCC(NC(=O)C(Cc3c[nH]c4ccccc34)NC(=O)C(C(C)C)NC(=O)C(CC(C)C)NC(=O)C(CCC(=O)O)NC(=O)CNC1=O)C(=O)NC(C(C)O)C(=O)N1CCCC1C(=O)N1CC(NC(=O)CCCc3cn(CCCCCC(=O)NC(COCCC(=O)NCCOCC4OCC(Nc5nccc(C(F)(F)F)n5)C(O)C4O)COCCC(=O)NCCOCC4OCC(Nc5nccc(C(F)(F)F)n5)C(O)C4O)nn3)CC1C(=O)NC(CC(=O)O)C(=O)N2 (stereo not drawn) [compound 76]		< 100		< 100	< 100	
CC(C)CC1NC(=O)C(Cc2cnc[nH]2)NC(=O)C(Cc2c[nH]c3ccccc23)NC(=O)C(C)NC(=O)C2CSSCC(NC(=O)C(Cc3c[nH]c4ccccc34)NC(=O)C(C(C)C)NC(=O)C(CC(C)C)NC(=O)C(CCC(=O)O)NC(=O)CNC1=O)C(=O)NC(C(C)O)C(=O)N1CCCC1C(=O)N1CC(NC(=O)c3ccc(N4CCC(CN5CCN(CC6OCC(Nc7cncc(C(F)(F)F)n7)C(O)C6O)CC5)CC4)cc3)CC1C(=O)NC(CC(=O)O)C(=O)N2 (stereo not drawn) [compound 44]		< 100	< 100	< 100		
CC(C)CC1NC(=O)C(Cc2cnc[nH]2)NC(=O)C(Cc2c[nH]c3ccccc23)NC(=O)C(C)NC(=O)C2CSSCC(NC(=O)C(Cc3c[nH]c4ccccc34)NC(=O)C(C(C)C)NC(=O)C(CC(C)C)NC(=O)C(CCC(=O)O)NC(=O)CNC1=O)C(=O)NC(C(C)O)C(=O)N1CCCC1C(=O)N1CC(NC(=O)CCOCCOCCOCCOCCNC(=O)CCCc3cn(CCCCCC(=O)NC(COCCC(=O)NCCOCCOCCOCCOCC4OCC(Nc5cncc(C(F)(F)F)n5)C(O)C4O)COCCC(=O)NCCOCCOCCOCCOCC4OCC(Nc5cncc(C(F)(F)F)n5)C(O)C4O)nn3)CC1C(=O)NC(CC(=O)O)C(=O)N2 (stereo not drawn) [compound 82]		< 100		< 100	< 100	
CC(C)CC1NC(=O)C(Cc2cnc[nH]2)NC(=O)C(Cc2c[nH]c3ccccc23)NC(=O)C(C)NC(=O)C2CSSCC(NC(=O)C(Cc3c[nH]c4ccccc34)NC(=O)C(C(C)C)NC(=O)C(CC(C)C)NC(=O)C(CCC(=O)O)NC(=O)CNC1=O)C(=O)NC(C(C)O)C(=O)N1CCCC1C(=O)N1CC(NC(=O)c3ccc(-c4ccc(C(=O)NCC5OCC(Nc6cncc(C(F)(F)F)n6)C(O)C5O)cc4)cc3)CC1C(=O)NC(CC(=O)O)C(=O)N2 (stereo not drawn) [compound 49]		< 100		< 100		> 686
CC(C)CC1NC(=O)C(C)NC(=O)CNC(=O)C(CC(C)C)NC(=O)C(Cc2cnc[nH]2)NC(=O)C(Cc2c[nH]c3ccccc23)NC(=O)C(C)NC(=O)C2CSSCC(NC(=O)C(Cc3c[nH]c4ccccc34)NC(=O)C(C(C)C)NC1=O)C(=O)NC(C(C)O)C(=O)N1CCCC1C(=O)N1CC(NC(=O)CNC(COCCC(=O)NCCOCCOCCOCCOCC3OCC(Nc4cncc(C(F)(F)F)n4)C(O)C3O)COCCC(=O)NCCOCCOCCOCCOCC3OCC(Nc4cncc(C(F)(F)F)n4)C(O)C3O)CC1C(=O)NC(CC(N)=O)C(=O)N2 (stereo not drawn) [compound 74] (cyclo(GALVWCTP[ξPro(4ξ-NH2)](X1)NCAWHL); disulfide 6-11; configuration not given here)	< 100	< 100	< 100			
CC(=O)NC1C(OCCOCCOCCOCCNC(=O)CCOCC(COCCC(=O)NCCOCCOCCOCCOC2OC(CO)C(O)C(O)C2NC(C)=O)(COCCC(=O)NCCOCCOCCOCCOC2OC(CO)C(O)C(O)C2NC(C)=O)NC(=O)CCCCCn2cc(CCCC(=O)NCCOCCOCCOCCOCCC(=O)NC3CC4C(=O)NC(CC(=O)O)C(=O)NC5CSSCC(NC(=O)C(Cc6c[nH]c7ccccc67)NC(=O)C(C(C)C)NC(=O)C(CC(C)C)NC(=O)C(CCC(=O)O)NC(=O)CNC(=O)C(CC(C)C)NC(=O)C(Cc6cnc[nH]6)NC(=O)C(Cc6c[nH]c7ccccc67)NC(=O)C(C)NC5=O)C(=O)NC(C(C)O)C(=O)N5CCCC5C(=O)N4C3)nn2)OC(CO)C(O)C1O (stereo not drawn) [compound 87]	> 1000	< 100	> 1000			
CC(C)CC1NC(=O)C(Cc2cnc[nH]2)NC(=O)C(Cc2c[nH]c3ccccc23)NC(=O)C(C)NC(=O)C2CSSCC(NC(=O)C(Cc3c[nH]c4ccccc34)NC(=O)C(C(C)C)NC(=O)C(CC(C)C)NC(=O)C(CCC(=O)N(C)C)NC(=O)CNC1=O)C(=O)NC(C(C)O)C(=O)N1CCCC1C(=O)N1CC(NC(=O)CNC(COCCC(=O)NCCOCCOCCOCCOCC3OCC(Nc4cncc(C(F)(F)F)n4)C(O)C3O)COCCC(=O)NCCOCCOCCOCCOCC3OCC(Nc4cncc(C(F)(F)F)n4)C(O)C3O)CC1C(=O)NC(CC(=O)O)C(=O)N2 (stereo not drawn) [compound 53]	< 100	< 100	< 100			
